Data taken from ChEMBL document CHEMBL1157125, “Modifications of C-2 on the pyrroloquinoline template aimed at the development of potent herpesvirus antivirals with improved aqueous solubility” (Bioorg Med Chem Lett, 2010).

Assays:
Assay type in all cases: ADME, organism-based
[1] = Volume of distribution at steady state in rat; conditions: in vivo, read-out: Vdss
[2] = Clearance in rat; conditions: in vivo
[3] = Half life in rat; conditions: in vivo
[4] = Oral bioavailability in rat; conditions: in vivo

- Vd [1]: 1.7 L/kg
- clearance [2]: 41.7 mL/min/kg
- half-life [3]: 48 min
- bioavailability [4]: 66%
SMILES: O=C(NCc1ccc(Cl)cc1)c1cn2c(CCO)cc3cc(CN4CCOCC4)cc(c1=O)c32
